In ChEMBL document CHEMBL1121583, “Synthesis and structure-activity studies of a series of 7 alpha-halogeno corticosteroids” (1980):

Tested on: Mus musculus
Assay: Relative topical anti inflammatory activity was measured in mice by comparing with cumulative potency of betamethasone valerate by using croton oil ear assay
Assay type: functional

**Q.** For `CCC(=O)OCC(=O)[C@@]1(OC(=O)CC)[C@@H](C)CC2C3C(C(O)C[C@@]21C)[C@@]1(C)C=CC(=O)C=C1C[C@H]3I` (some centres not stated), which Potency is on record?
**A.** 103

**Q.** Which Potency does the source give for `CCC(=O)OCC(=O)[C@@]1(OC(=O)CC)[C@@H](C)CC2C3C=CC4=CC(=O)C=C[C@]4(C)C3C(O)C[C@@]21C` (some centres not stated) here?
**A.** 57

**Q.** How did the Potency turn out when `CCC(=O)OCC(=O)[C@@]1(OC(=O)CC)[C@H](C)CC2C3C(C(O)C[C@@]21C)[C@@]1(C)C=CC(=O)C=C1C[C@H]3F` (some centres not stated) was run?
**A.** 78

**Q.** For `CC(=O)OCC(=O)[C@@]1(O)[C@@H](C)CC2C3C(C(O)C[C@@]21C)[C@@]1(C)C=CC(=O)C=C1C[C@H]3I` (some centres not stated), which Potency is on record?
**A.** 54

**Q.** How did the Potency turn out when `CC(=O)OCC(=O)[C@@]1(O)[C@H](C)CC2C3C(C(O)C[C@@]21C)[C@@]1(C)C=CC(=O)C=C1C[C@H]3Cl` (some centres not stated) was run?
**A.** 32

**Q.** Which Potency does the source give for `CCC(=O)OCC(=O)[C@@]1(OC(=O)CC)[C@@H](C)CC2C3C(C(O)C[C@@]21C)[C@@]1(C)C=CC(=O)C=C1C[C@H]3F` (some centres not stated) here?
**A.** 69

**Q.** How did the Potency turn out when `CCC(=O)OCC(=O)[C@@]1(OC(=O)CC)[C@@H](C)CC2C3C(C(O)C[C@@]21C)[C@@]1(C)C=CC(=O)C=C1C[C@H]3Br` (some centres not stated) was run?
**A.** 186

**Q.** Which Potency does the source give for `CC(=O)OCC(=O)[C@@]1(O)[C@H](C)CC2C3C=CC4=CC(=O)C=C[C@]4(C)C3C(O)C[C@@]21C` (some centres not stated) here?
**A.** 4

**Q.** `CC(=O)OCC(=O)[C@@]1(O)[C@@H](C)CC2C3C(C(O)C[C@@]21C)[C@@]1(C)C=CC(=O)C=C1C[C@H]3Br` (some centres not stated) was tested. Which Potency did it give?
**A.** 94

**Q.** How did the Potency turn out when `CCCCC(=O)O[C@]1(C(=O)CO)[C@@H](C)C[C@H]2[C@@H]3CCC4=CC(=O)C=C[C@]4(C)[C@@]3(F)[C@@H](O)C[C@@]21C` [BETAMETHASONE VALERATE] was run?
**A.** 100

**Q.** How did the Potency turn out when `CCC(=O)OCC(=O)[C@@]1(OC(=O)CC)[C@@H](C)C[C@H]2[C@@H]3CCC4=CC(=O)C=C[C@]4(C)[C@@]3(F)[C@@H](O)C[C@@]21C` [BETAMETHASONE DIPROPIONATE] was run?
**A.** 165

**Q.** `CCC(=O)OCC(=O)[C@@]1(OC(=O)CC)[C@H](C)CC2C3C=CC4=CC(=O)C=C[C@]4(C)C3C(O)C[C@@]21C` (some centres not stated) was tested. Which Potency did it give?
**A.** 27

**Q.** Which Potency does the source give for `CC(=O)OCC(=O)[C@@]1(O)[C@@H](C)CC2C3C(C(O)C[C@@]21C)[C@@]1(C)C=CC(=O)C=C1C[C@H]3F` (some centres not stated) here?
**A.** 16

**Q.** Which Potency does the source give for `CCC(=O)OCC(=O)[C@@]1(OC(=O)CC)[C@@H](C)CC2C3CCC4=CC(=O)C=C[C@]4(C)C3C(O)C[C@@]21C` (some centres not stated) here?
**A.** 76

**Q.** For `CC(=O)OCC(=O)[C@@]1(O)[C@@H](C)CC2C3CCC4=CC(=O)C=C[C@]4(C)C3C(O)C[C@@]21C` (some centres not stated), which Potency is on record?
**A.** 26

**Q.** With `CCC(=O)OCC(=O)[C@@]1(OC(=O)CC)[C@H](C)CC2C3C(C(O)C[C@@]21C)[C@@]1(C)C=CC(=O)C=C1C[C@H]3I` (some centres not stated) as the compound, how does the Potency read?
**A.** 36

**Q.** `CCC(=O)OCC(=O)[C@@]1(OC(=O)CC)[C@H](C)CC2C3CCC4=CC(=O)C=C[C@]4(C)C3C(O)C[C@@]21C` (some centres not stated) was tested. Which Potency did it give?
**A.** 74

**Q.** `CC(=O)OCC(=O)[C@@]1(O)[C@H](C)CC2C3C(C(O)C[C@@]21C)[C@@]1(C)C=CC(=O)C=C1C[C@H]3Br` (some centres not stated) was tested. Which Potency did it give?
**A.** 20

**Q.** `CCC(=O)OCC(=O)[C@@]1(OC(=O)CC)[C@H](C)CC2C3C(C(O)C[C@@]21C)[C@@]1(C)C=CC(=O)C=C1C[C@H]3Br` (some centres not stated) was tested. Which Potency did it give?
**A.** 120

**Q.** How did the Potency turn out when `CC(=O)OCC(=O)[C@@]1(O)[C@@H](C)CC2C3C(C(O)C[C@@]21C)[C@@]1(C)C=CC(=O)C=C1C[C@H]3Cl` (some centres not stated) was run?
**A.** 81

**Q.** Which Potency does the source give for `CC(=O)OCC(=O)[C@@]1(O)[C@@H](C)CC2C3C=CC4=CC(=O)C=C[C@]4(C)C3C(O)C[C@@]21C` (some centres not stated) here?
**A.** 29

**Q.** Which Potency does the source give for `CC(=O)OCC(=O)[C@@]1(O)[C@H](C)CC2C3CCC4=CC(=O)C=C[C@]4(C)C3C(O)C[C@@]21C` (some centres not stated) here?
**A.** 10
